These compounds were tested against BRD4 (Homo sapiens, UniProt O60885) (assay: Time resolved fluorescence resonance energy transfer (TR-FRET) binding assay, bromodomain BRD4). Conditions: one of the FRET assays described; read-out: FRET BRD4 IC50.

SMILES | IC50
[2H]C([2H])([2H])c1nnn(C)c1-c1cnc2c3c(OCCCF)ncc(S(C)(=O)=O)c3n([C@H](c3ccccc3F)C3CCOCC3)c2c1 [Example 85, 8-[(S)-(2-Fluorophenyl)(oxan-4-yl)methyl]-13-(3-fluoropropoxy)-10-methanesulfonyl-5-[4-(^2H3)methyl-1-methyl-1H-1,2,3-triazol-5-yl]-3,8,12-triazatricyclo[7.4.0.0^2,^7]trideca-1(13),2(7),3,5,9,11-hexaene] | < 0.001 µM
[2H]C([2H])([2H])c1nnn(C)c1-c1cnc2c3c(OCC4CC4)ncc(S(C)(=O)=O)c3n([C@H](c3ccccc3F)C3CCOCC3)c2c1 [Example 76, 13-(Cyclopropylmethoxy)-8-[(S)-(2-fluorophenyl)(oxan-4-yl)methyl]-10-methanesulfonyl-5-[4-(^2H3)methyl-1-methyl-1H-1,2,3-triazol-5-yl]-3,8,12-triazatricyclo[7.4.0.0^2,^7]trideca-1(13),2(7),3,5,9,11-hexaene] | < 0.001 µM
CNCCN(C)c1ccc2c3ncc(-c4c(C)nnn4C)cc3n([C@H](c3ccccc3F)C3CCOCC3)c2n1 [Example 228, 5-(Dimethyl-1H-1,2,3-triazol-5-yl)-8-[(S)-(2-fluorophenyl)(oxan-4-yl)methyl]-N-methyl-N-[2-(methylamino)ethyl]-3,8,10-triazatricyclo[7.4.0.0^2,^7]trideca-1(13),2(7),3,5,9,11-hexaen-11-amine] | < 0.001 µM
COc1nccc2c3ncc(-c4c(C)nnn4C)cc3n(C(c3cccc(F)c3F)C3CCOCC3)c12 (single isomer, unassigned) [Example 22, 8-[(2,3-Difluorophenyl)(oxan-4-yl)methyl]-5-(dimethyl-1H-1,2,3-triazol-5-yl)-10-methoxy-3,8,11-triazatricyclo[7.4.0.0^2,^7]trideca-1(13),2(7),3,5,9,11-hexaene] | < 0.01 µM
Cc1nnn(C)c1-c1cnc2c3cnccc3n([C@H](c3ccccc3)C3CCOCC3)c2c1 [Example 35, 5-(Dimethyl-1H-1,2,3-triazol-5-yl)-8-[(S)-oxan-4-yl(phenyl)methyl]-3,8,12-triazatricyclo[7.4.0.0^2,^7]trideca-1(13),2(7),3,5,9,11-hexaene] | < 0.01 µM
[2H]C([2H])([2H])c1nnn(C)c1-c1cnc2c3c(NCC(F)(F)F)ncc(S(C)(=O)=O)c3n([C@H](c3ncccc3F)C3CCOCC3)c2c1 [Example 341, 8-[(S)-(3-Fluoropyridin-2-yl)(oxan-4-yl)methyl]-10-methanesulfonyl-5-[4-(^2H3)methyl-1-methyl-1H-1,2,3-triazol-5-yl]-N-(2,2,2-trifluoroethyl)-3,8,12-triazatricyclo[7.4.0.0^2,^7]trideca-1(13),2(7),3,5,9,11-hexaen-13-amine] | < 0.001 µM
[2H]C([2H])([2H])c1nnn(C)c1-c1cnc2c3ccc(C4CCS(=O)(=O)CC4)nc3n([C@H](c3ccccc3)C3CCOCC3)c2c1 [Example 205, 4-{5-[4-(^2H3)Methyl-1-methyl-1H-1,2,3-triazol-5-yl]-8-[(S)-oxan-4-yl(phenyl)methyl]-3,8,10-triazatricyclo[7.4.0.0^2,^7]trideca-1(9),2(7),3,5,10,12-hexaen-11-yl}-1λ^6-thiane-1,1-dione] | < 0.01 µM
[2H]C([2H])([2H])c1nnn(C)c1-c1cnc2c3ccc(C(C)=O)nc3n([C@H](c3ccccc3)C3CCOCC3)c2c1 [Example 202, 1-{5-[4-(^2H3)Methyl-1-methyl-1H-1,2,3-triazol-5-yl]-8-[(S)-oxan-4-yl(phenyl)methyl]-3,8,10-triazatricyclo[7.4.0.0^2,^7]trideca-1(9),2(7),3,5,10,12-hexaen-11-yl}ethan-1-one] | < 0.01 µM
[2H]C([2H])([2H])c1nnn(C)c1-c1cnc2c3cc(C(=O)OC)cnc3n([C@H](c3ccccc3)C3CCOCC3)c2c1 [Example 348, Methyl 5-[4-(^2H3)methyl-1-methyl-1H-1,2,3-triazol-5-yl]-8-[(S)-oxan-4-yl(phenyl)methyl]-3,8,10-triazatricyclo[7.4.0.0^2,^7]trideca-1(13),2(7),3,5,9,11-hexaene-12-carboxylate] | < 0.01 µM
[2H]C([2H])([2H])c1nnn(C)c1-c1cnc2c3c(Cl)ncc(F)c3n([C@H](c3ccccc3)C3CCOCC3)c2c1 [Example 280, 13-Chloro-10-fluoro-5-[4-(^2H3)methyl-1-methyl-1H-1,2,3-triazol-5-yl]-8-[(S)-oxan-4-yl(phenyl)methyl]-3,8,12-triazatricyclo[7.4.0.0^2,^7]trideca-1(13),2(7),3,5,9,11-hexaene] | < 0.01 µM
Cc1nnn(C)c1-c1cnc2c3ccc(-c4cnn(C5CC5)c4)nc3n([C@H](c3ccccc3)C3CCOCC3)c2c1 [Example 150, 11-(1-Cyclopropyl-1H-pyrazol-4-yl)-5-(dimethyl-1H-1,2,3-triazol-5-yl)-8-[(S)-oxan-4-yl(phenyl)methyl]-3,8,10-triazatricyclo[7.4.0.0^2,^7]trideca-1(13),2(7),3,5,9,11-hexaene] | < 0.001 µM
Cc1nnn(C)c1-c1cnc2c3ccc(S(N)(=O)=O)nc3n([C@H](c3ccccc3)C3CCOCC3)c2c1 [Example 195, 5-(Dimethyl-1H-1,2,3-triazol-5-yl)-8-[(S)-oxan-4-yl(phenyl)methyl]-3,8,10-triazatricyclo[7.4.0.0^2,^7]trideca-1(9),2(7),3,5,10,12-hexaene-11-sulfonamide] | < 0.01 µM
[2H]C([2H])([2H])c1nnn(C)c1-c1cnc2c3c(OCC)ncc(S(C)(=O)=O)c3n([C@H](c3ccccc3)C3CCOCC3)c2c1 [Example 56, 13-Ethoxy-10-methanesulfonyl-5-[4-(^2H3)methyl-1-methyl-1H-1,2,3-triazol-5-yl]-8-[(S)-oxan-4-yl(phenyl)methyl]-3,8,12-triazatricyclo[7.4.0.0^2,^7]trideca-1(13),2(7),3,5,9,11-hexaene] | < 0.001 µM
[2H]C([2H])([2H])c1nnn(C)c1-c1cnc2c3ccc(-c4c(C([2H])([2H])[2H])nnn4C)nc3n([C@@H](c3ccccc3)C3CCOCC3)c2c1 [Example 165, 5,11-Bis[4-(^2H3)methyl-1-methyl-1H-1,2,3-triazol-5-yl]-8-[(R)-oxan-4-yl(phenyl)methyl]-3,8,10-triazatricyclo[7.4.0.0^2,^7]trideca-1(9),2(7),3,5,10,12-hexaene] | < 0.01 µM
Cc1nnn(C)c1-c1cnc2c3ccc(Cl)nc3n([C@H](c3ccccc3)C3CCOCC3)c2c1 [Example 14, 11-Chloro-5-(dimethyl-1H-1,2,3-triazol-5-yl)-8-[(S)-oxan-4-yl(phenyl)methyl]-3,8,10-triazatricyclo[7.4.0.0^2,^7]trideca-1(9),2(7),3,5,10,12-hexaene] | < 0.01 µM
[2H]C([2H])([2H])c1nnn(C)c1-c1cnc2c3ccc(S(C)(=O)=O)nc3n([C@H](c3ccccc3F)C3CCOCC3)c2c1 [Example 235, 8-[(S)-(2-Fluorophenyl)(oxan-4-yl)methyl]-11-methanesulfonyl-5-[4-(^2H3)methyl-1-methyl-1H-1,2,3-triazol-5-yl]-3,8,10-triazatricyclo[7.4.0.0^2,^7]trideca-1(13),2(7),3,5,9,11-hexaene] | < 0.01 µM
CCOP(=O)(CCNc1ccc2c3ncc(-c4c(C)nnn4C)cc3n([C@H](c3ccccc3)C3CCOCC3)c2n1)OCC [Example 215, Diethyl (2-{[5-(dimethyl-1H-1,2,3-triazol-5-yl)-8-[(S)-oxan-4-yl(phenyl)methyl]-3,8,10-triazatricyclo[7.4.0.0^2,^7]trideca-1(9),2(7),3,5,10,12-hexaen-11-yl]amino}ethyl)phosphonate] | < 0.01 µM
Cc1nnn(C)c1-c1cc2c(cn1)c1ncc(C(C)(C)O)cc1n2[C@H](c1ccccc1)C1CCOCC1 [Example 368] | < 0.01 µM
COc1ncc(S(C)(=O)=O)c2c1c1ncc(-c3c(C)nnn3C)cc1n2C(c1ccccc1)C1CCC(F)(F)CC1 (single isomer, unassigned) [Example 91, 8-[(4,4-Difluorocyclohexyl)(phenyl)methyl]-5-(dimethyl-1H-1,2,3-triazol-5-yl)-10-methanesulfonyl-13-methoxy-3,8,12-triazatricyclo[7.4.0.0^2,^7]trideca-1(13),2(7),3,5,9,11-hexaene] | < 1.5 µM
COc1ncc(Cl)c2c1c1ncc(-c3c(C)nnn3C)cc1n2[C@H](c1ccccc1)C1CCOCC1 [Example 40, 10-Chloro-5-(dimethyl-1H-1,2,3-triazol-5-yl)-13-methoxy-8-[(S)-oxan-4-yl(phenyl)methyl]-3,8,12-triazatricyclo[7.4.0.0^2,^7]trideca-1(13),2(7),3,5,9,11-hexaene] | < 0.001 µM
C=C(C)c1ccc2c3ncc(-c4c(C)nnn4C)cc3n([C@H](c3ccccc3)C3CCOCC3)c2n1 [Example 161, 5-(Dimethyl-1H-1,2,3-triazol-5-yl)-8-[(S)-oxan-4-yl(phenyl)methyl]-11-(prop-1-en-2-yl)-3,8,10-triazatricyclo[7.4.0.0^2,^7]trideca-1(9),2(7),3,5,10,12-hexaene] | < 0.01 µM
Cc1nnn(C)c1-c1cnc2c3ccc(NC(=O)C4CC4)nc3n([C@H](c3ccccc3F)C3CCOCC3)c2c1 [Example 276, N-[5-(Dimethyl-1H-1,2,3-triazol-5-yl)-8-[(S)-(2-fluorophenyl)(oxan-4-yl)methyl]-3,8,10-triazatricyclo[7.4.0.0^2,^7]trideca-1(13),2(7),3,5,9,11-hexaen-11-yl]cyclopropanecarboxamide] | < 0.01 µM
Cc1nnn(C)c1-c1cnc2c3ccc(N(C)C)nc3n([C@H](c3ccccc3)C3CCOCC3)c2c1 [Example 181, 5-(Dimethyl-1H-1,2,3-triazol-5-yl)-N,N-dimethyl-8-[(S)-oxan-4-yl(phenyl)methyl]-3,8,10-triazatricyclo[7.4.0.0^2,^7]trideca-1(9),2(7),3,5,10,12-hexaen-11-amine] | < 0.001 µM
COc1nc(Cl)cc2c1c1ncc(-c3c(C)nnn3C)cc1n2C(c1ncccc1O)C1CCOCC1 (stereo not drawn) [Example 306, 2-({11-Chloro-13-methoxy-5-[4-(^2H3)methyl-1-methyl-1H-1,2,3-triazol-5-yl]-3,8,12-triazatricyclo[7.4.0.0^2,^7]trideca-1(9),2(7),3,5,10,12-hexaen-8-yl}(oxan-4-yl)methyl)pyridin-3-ol] | < 0.01 µM
